Tests used:
Assay in all cases: Pre-emergent herbicidal activity (Table A)
Assay type in all cases: in vivo
[1] = system: Barnyardgrass; details: Echinochloa crus-galli, pre-emergence, Bygr, 11.2 kg/ha, 10-14 days, read-out: herbicidal rating (% inhibition)
Method: (§1) The herbicidal ratings used in Tables A and B were assigned according to a scale based on the percent inhibition of each plant species. The herbicide rating symbols in Tables A and B are defined as follows: […]
(§2) One set of pre-emergent tests was conducted as follows:
(§3) Topsoil was placed in a pan and compacted to a depth of 0.95 to 1.27 cm. from the top of the pan. A predetermined number of seeds of each of several monocotyledonous and dicotyledonous annual plant species and/or vegetative propagules of various perennial plant species were placed on top of the soil. The soil required to level fill a pan after seeding or adding vegetative propagules was weighed into another pan. A known amount of the test compound dissolved or suspended in an organic solvent or water and applied in acetone or water as a carrier was thoroughly mixed with this cover soil, and the herbicide/soil mixture was used as a cover layer for the previously prepared pan.
(§4) The plant species usually regarded as weeds which were utilized in one set of pre-emergent activity tests, the data for which are shown in Table A, are identified by letter headings printed diagonally above the columns according to the following legend: […]

[2] = system: Canada thistle; details: Cirsium arvense, pre-emergence, Cath, 11.2 kg/ha, 10-14 days, read-out: herbicidal rating (% inhibition)
Method: as §1, §2, §3, §4

[3] = system: Cocklebur; details: Xanthium strumarium, pre-emergence, Cobu, 11.2 kg/ha, 10-14 days, read-out: herbicidal rating (% inhibition)
Method: as §1, §2, §3, §4

[4] = system: Common Lambsquarters; details: Chenopodium album, pre-emergence, Colq, 11.2 kg/ha, 10-14 days, read-out: herbicidal rating (% inhibition)
Method: as §1, §2, §3, §4

[5] = system: Downy Brome; details: Bromus tectorum, pre-emergence, Dobr, 11.2 kg/ha, 10-14 days, read-out: herbicidal rating (% inhibition)
Method: as §1, §2, §3, §4

[6] = system: Morningglory; details: Ipomoea, pre-emergence, Mogl, 11.2 kg/ha, 10-14 days, read-out: herbicidal rating (% inhibition)
Method: as §1, §2, §3, §4

[7] = system: Pennsylvania Smartweed; details: pre-emergence, Pesw, 11.2 kg/ha, 10-14 days, read-out: herbicidal rating (% inhibition)
Method: as §1, §2, §3, §4

[8] = system: Quackgrass; details: pre-emergence, Rhqg, 11.2 kg/ha, 10-14 days, read-out: herbicidal rating (% inhibition)
Method: as §1, §2, §3, §4

[9] = system: Rhizome Johnsongrass; details: Sorghum halepense, pre-emergence, Rhjg, 11.2 kg/ha, 10-14 days, read-out: herbicidal rating (% inhibition)
Method: as §1, §2, §3, §4

[10] = system: Velvetleaf; details: Abutilon theophrasti, pre-emergence, Vele, 11.2 kg/ha, 10-14 days, read-out: herbicidal rating (% inhibition)
Method: as §1, §2, §3, §4

[11] = system: Yellow Nutsedge; details: Cyperus, pre-emergence, Yens, 11.2 kg/ha, 10-14 days, read-out: herbicidal rating (% inhibition)
Method: as §1, §2, §3, §4

Structure (SMILES)	inhibition at 11200 g/ha [1] [%]	inhibition at 11200 g/ha [2] [%]	inhibition at 11200 g/ha [3] [%]	inhibition at 11200 g/ha [4] [%]	inhibition at 11200 g/ha [5] [%]	inhibition at 11200 g/ha [6] [%]	inhibition at 11200 g/ha [7] [%]	inhibition at 11200 g/ha [8] [%]	inhibition at 11200 g/ha [9] [%]	inhibition at 11200 g/ha [10] [%]	inhibition at 11200 g/ha [11] [%]
COC(=O)c1c(OC)nc(C(F)(F)F)c(C(=O)OC)c1CC(C)C [Compound 2, 3,5-pyridinedicarboxylic acid, 2-methoxy-4-(2-methylpropyl)-6-(trifluoromethyl)-, dimethyl ester]	75 to 100	75 to 100	75 to 100	75 to 100	75 to 100	75 to 100	75 to 100	75 to 100	75 to 100	75 to 100	75 to 100
CCOC(=O)c1c(OCC)nc(C(F)(F)F)c(C(=O)OC)c1CC(C)C [Compound 3, 3,5-pyridinedicarboxylic acid, 2-ethoxy-4-(2-methylpropyl)-6-(trifluoromethyl)-, 3-ethyl 5-methyl ester, hydrate (1:0.4)]	75 to 100	75 to 100	0 to 24	75 to 100	75 to 100	50 to 74	50 to 74	75 to 100	0 to 24	0 to 24	25 to 49
CCOC(=O)c1c(OC)nc(C(F)(F)F)c(C(=O)OC)c1CC(C)C [Compound 4, 3,5-pyridinedicarboxylic acid, 2-methoxy-4-(2-methylpropyl)-6-(trifluoromethyl)-, 3-ethyl 5-methyl ester]	75 to 100	75 to 100	0 to 24	75 to 100	75 to 100	75 to 100	75 to 100	75 to 100	75 to 100	75 to 100	25 to 49
CCOC(=O)c1c(OC(C)C)nc(C(F)(F)F)c(C(=O)OC)c1CC(C)C [Compound 5, 3,5-pyridinedicarboxylic acid, 2-(1-methylethoxy)-4-(2-methylpropyl)-6-(trifluoromethyl)-, 3-ethyl 5-methyl ester]	75 to 100	0 to 24	0 to 24	75 to 100	75 to 100	0 to 24	25 to 49	50 to 74	75 to 100	0 to 24	0 to 24
COC(=O)c1c(OC)nc(C(F)(F)F)c(C(=O)OC)c1C1CC1 [Compound 9, 3,5-pyridinedicarboxylic acid, 4-cyclopropy1-2-methoxy-6-(trifluoromethyl)-, dimethyl ester]	75 to 100	75 to 100	0 to 24	75 to 100	75 to 100	75 to 100	75 to 100	75 to 100	75 to 100	75 to 100	75 to 100
CCOC(=O)c1c(C(F)(F)C(F)(F)F)nc(OC)c(C(=O)OC)c1CC(C)C [Compound 11, 3,5-pyridinedicarboxylic acid, 2-methoxy-4-(2-methylpropyl)-6-(pentafluoroethyl)-, 5-ethyl 3-methyl ester]	75 to 100	25 to 49	0 to 24	75 to 100	75 to 100	50 to 74	75 to 100	75 to 100	0 to 24	25 to 49	75 to 100
COc1nc(C(F)(F)F)c(C(=O)SC)c(C2CC2)c1C(=O)SC [Compound 12, 3,5-pyridinedicarbothioic acid, 4-cyclopropy1-2-methoxy-6-(trifluoromethyl)-, S,S-dimethyl ester]	75 to 100	25 to 49	25 to 49	75 to 100	75 to 100	75 to 100	75 to 100	75 to 100	0 to 24	75 to 100	25 to 49
COC(=O)c1c(C(F)(F)F)nc(OC)c(-n2cccc2)c1CC(C)C [Compound 14, 3-pyridinecarboxylic acid, 6-methoxy-4-(2-methylpropyl)-5-(1H-pyrro1-1-yl)-2-(trifluoromethyl)-, methyl ester]	75 to 100	75 to 100	0 to 24	75 to 100	75 to 100	75 to 100	75 to 100	50 to 74	75 to 100	75 to 100	0 to 24
COC(=O)c1c(OC)nc(C(F)(F)F)c(-n2cccc2)c1CC(C)C [Compound 15, 3-pyridinecarboxylic acid, 2-methoxy-4-(2-methylpropyl)-5-(1H-pyrro1-1-yl)-6-(trifluoromethyl)-, methyl ester]	75 to 100	75 to 100	0 to 24	75 to 100	75 to 100	75 to 100	75 to 100	75 to 100	75 to 100	75 to 100	25 to 49
CCCCOC(=O)c1c(C(F)(F)F)nc(OC)c(C(=O)OC)c1CC(C)C [Compound 16, 3,5-pyridinedicarboxylic acid, 2-methoxy-4-(2-methylpropyl)-6-(trifluoromethyl)-, 5 butyl 3-methyl ester]	75 to 100	50 to 74	0 to 24	75 to 100	75 to 100	75 to 100	75 to 100	75 to 100	0 to 24	75 to 100	0 to 24
CCOc1nc(C(F)(F)F)c(C(=O)SC)c(CC(C)C)c1C(=O)SC [Compound 19, 3,5-pyridinedicarbothioic acid, 2-ethoxy-4-(2-methylpropyl)-6-(trifluoromethyl)-, S,S-dimethyl ester]	75 to 100	25 to 49	25 to 49	75 to 100	–	50 to 74	75 to 100	75 to 100	0 to 24	75 to 100	0 to 24
COC(=O)c1c(C(F)(F)F)nc(OC)c(C#N)c1CC(C)C [Compound 20, 3-pyridinecarboxylic acid, 5-cyano-6-methoxy-4-(2-methylpropyl)-2-(trifluoromethyl)-, methyl ester]	75 to 100	0 to 24	0 to 24	75 to 100	75 to 100	50 to 74	25 to 49	75 to 100	75 to 100	0 to 24	0 to 24
CNC(=O)c1c(OC)nc(C(F)(F)F)c(C(=O)OC)c1CC(C)C [Compound 21, 3-pyridinecarboxylic acid, 6-methoxy-5-[(methylamino)carbonyl]-4-(2-methylpropyl)-2-(trifluoromethyl)-, methyl ester]	75 to 100	0 to 24	0 to 24	75 to 100	75 to 100	0 to 24	0 to 24	75 to 100	0 to 24	0 to 24	0 to 24
